From patent publication EP3057951B1, “METHYLENE LINKED QUINOLINYL MODULATORS OF ROR-GAMMA-T” (Janssen Pharmaceutica NV, priority 2013, dated 2015) come the findings set out here.

Structures can show the parent of a compound that is named as a salt.

The target in experiment [1] is T1, wild type human RORγt ligand binding domain (RORyt LBD) (Homo sapiens, UniProt P51449).
T1 construct: His-tag (N); TurboTEV protease cleavage site (ENLYFQG) (N); made in house; host or cells: E. coli (pHIS1, modified pET vector)
T1 sequence (P51449 258-518): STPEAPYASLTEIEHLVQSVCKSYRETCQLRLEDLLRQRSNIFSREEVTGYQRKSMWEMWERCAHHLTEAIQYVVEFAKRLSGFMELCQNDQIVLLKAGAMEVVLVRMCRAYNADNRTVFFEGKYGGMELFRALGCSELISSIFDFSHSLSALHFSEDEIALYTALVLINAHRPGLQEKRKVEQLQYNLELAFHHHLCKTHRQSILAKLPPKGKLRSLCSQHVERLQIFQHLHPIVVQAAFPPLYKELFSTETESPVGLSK
The experiment in a line: RORγt ThermoFluor assay (thermal shift, binding affinity KD). On the technique in general: In DSF a fluorescence change marks the thermal transition of the protein.

In experiment [2] the target is T2, wild type human RORγt LBD (Homo sapiens, UniProt P51449).
T2 construct: expressed in transfected cells; host or cells: HEK293T
T2 sequence (P51449 258-518): T1 sequence (P51449 258-518)
As to the kind of experiment: RORγt (LBD) Reporter Assay (GAL4-luciferase, HEK293T cells). The class given is cell-based. As to conditions: HEK293T cells; for inhibition at 6 µM: HEK-293T, read-out: RORγt (LBD) Reporter Assay, % inhibition @ 6 µM, 6 µM compound concentration. In general terms: In a reporter assay the amount or activity of a reporter protein is the signal.

Consider `Cc1cc(C(O)(c2ccc(Cl)cc2)c2cncn2C)cc2c(Cl)c(Cc3ccc(-n4cccn4)cc3)c(S(C)(=O)=O)nc12` (centres unmarked) [Example 142, {4-Chloro-8-methyl-2-(methylsulfonyl)-3-[4-(1H-pyrazol-1-yl)benzyl]quinolin-6-yl}(4-chlorophenyl)(1-methyl-1H-imidazol-5-yl)methanol], for which the Kd – broadly, the constant that tells how readily two partners part at equilibrium – in experiment [1] came to 1500 nM. In addition, in experiment [2], inhibition was half-maximal at 1600 nM (IC50) and the inhibition at 6 µM amounted to 87%.

As to `Cc1ccc(C(O)(c2ccc3nc(NC4CC4)c(Cc4ccc(C(F)(F)F)cc4)c(Cl)c3c2)c2cnnn2C)c(C)n1` (centres unmarked) [Example 143a, {4-Chloro-2-(cyclopropylamino)-3-[4-(trifluoromethyl)benzyl]quinolin-6-yl}(2,6-dimethylpyridin-3-yl)(1-methyl-1H-1,2,3-triazol-5-yl)methanol], the Kd in experiment [1] is 7.2 nM. In addition, the inhibition at 6 µM in experiment [2] amounted to 101%.

`Cc1ccc(C(O)(c2ccc3nc(Cl)c(Cc4ccc(C(F)(F)F)cc4)c(NC4CC4)c3c2)c2cnnn2C)c(C)n1` (centres unmarked) [Example 144a, {2-Chloro-4-(cyclopropylamino)-3-[4-(trifluoromethyl)benzyl]quinolin-6-yl}(2,6-dimethylpyridin-3-yl)(1-methyl-1H-1,2,3-triazol-5-yl)methanol]: the Kd in experiment [1] was determined as 12 nM. Moreover, in experiment [2], half-maximal inhibition (IC50) required 74 nM and the inhibition at 6 µM came out at 99%.

Consider `COc1nc2ccc(C(O)(c3cncn3C)c3cncn3C)cc2c(Cl)c1Cc1ccc(C(F)(F)F)cc1` [Example 149, (4-Chloro-2-methoxy-3-(4-(trifluoromethyl)benzyl)quinolin-6-yl)bis(1-methyl-1H-imidazol-5-yl)methanol], for which the Kd in experiment [1] was found to be 0.34 nM. In experiment [2], the IC50 – broadly, the midpoint of a concentration-inhibition curve – came to 2.4 nM and the inhibition at 6 µM was determined as 96%.

Turning to `Cn1cncc1C(O)(c1ccc2nc(C(F)(F)F)c(Cc3ccccc3)c(O)c2c1)c1ccccn1` (centres unmarked) [Example 152, 3-Benzyl-6-(hydroxy(1-methyl-1H-imidazol-5-yl)(pyridin-2-yl)methyl)-2-(trifluoromethyl)quinolin-4-ol^.TFA], the Kd in experiment [1] was determined as 38000 nM. Further, in experiment [2], the IC50 worked out at 4800 nM and the inhibition at 6 µM came out at 70%.

In the case of `Cn1cncc1C(O)(c1ccc(C(F)(F)F)nc1)c1ccc2nc(-c3nccn3C)c(Cc3ccccc3)c(C#N)c2c1` (centres unmarked) [Example 153, 3-Benzyl-6-(hydroxy(1-methyl-1H-imidazol-5-yl)(6-(trifluoromethyl)pyridin-3-yl)methyl)-2-(1-methyl-1H-imidazol-2-yl)quinoline-4-carbonitrile^.TFA], the Kd in experiment [1] worked out at 15000 nM. Besides, in experiment [2], the IC50 was more than 6000 nM and the inhibition at 6 µM was 44%.

Consider `COc1nc2ccc(C(O)(c3oc(C)nc3C)c3cnnn3C)cc2c(Cl)c1Cc1ccc(C(F)(F)F)cc1` (centres unmarked) [Example 156a, (4-chloro-2-methoxy-3-(4-(trifluoromethyl)benzyl)quinolin-6-yl)(2,4-dimethylozazol-5-yl)(1-methyl-1H-1,2,3-triazol-5-yl)methanol], for which, in experiment [1], the Kd came out at 0.63 nM. In experiment [2], the IC50 amounted to 6.6 nM and the inhibition at 6 µM turned out to be 94%.

With `COc1nc2ccc(C(O)(c3ccc(F)cc3)C3CCN(C(C)=O)CC3)cc2c(Cl)c1Cc1ccc(-n2cccn2)cc1` (centres unmarked) [Example 157a, 1-(4-((3-(4-(1H-Pyrazol-1-yl)benzyl)4-chloro-2-methoxyquinolin-6-yl)(4-fluorophenyl)(hydroxy)methyl)piperidin-1-yl)ethanone], the Kd in experiment [1] worked out at 3.9 nM. In experiment [2], the IC50 is approximately 7 nM and the inhibition at 6 µM turned out to be 93%.

Regarding `COc1nc2ccc(C(O)(c3ccc(F)cc3)c3cccnc3)cc2c(Cl)c1Cc1ccc(-n2cccn2)cc1` (centres unmarked) [Example 158a, (3-(4-(1H-Pyrazol-1-yl)benzyl)-4-chloro-2-methoxyquinolin-6-yl)(4-fluorophenyl)(pyridin-3-yl)methanol], the Kd in experiment [1] stood at 21 nM. Moreover, in experiment [2], the IC50 came to 57 nM and the inhibition at 6 µM was 97%.

For `COc1ccc(C(O)(c2cccnc2)c2ccc3nc(OC)c(Cc4ccc(-n5cccn5)cc4)c(Cl)c3c2)cc1OC` (centres unmarked) [Example 159a, (3-(4-(1H-Pyrazol-1-yl)benzyl)-4-chloro-2-methoxyquinolin-6-yl)(3,4-dimethoxyphenyl)(pyridin-3-yl)methanol], the Kd in experiment [1] was 29 nM. In experiment [2], the midpoint of inhibition, the IC50, lay at 120 nM and the inhibition at 6 µM stood at 107%.

For `COc1nc2ccc(C(O)(c3ccc(F)cc3)c3cncn3C)cc2c(Cl)c1Cc1ccc(-n2cccn2)cc1` (centres unmarked) [Example 160a, (3-(4-(1H-Pyrazol-1-yl)benzyl)-4-chloro-2-methoxyquinolin-6-yl)(4-fluorophenyl)(1-methyl-1H-imidazol-5-yl)methanol], the Kd in experiment [1] is 49 nM. Moreover, in experiment [2], the IC50 came out at 59 nM and the inhibition at 6 µM was 112%.

Consider `COc1nc2ccc(C(O)(c3cccnc3)c3ccc(Cl)c(Cl)c3)cc2c(Cl)c1Cc1ccc(-n2cccn2)cc1` (centres unmarked) [Example 161a, (3-(4-(1H-Pyrazol-1-yl)benzyl)-4-chloro-2-methoxyquinolin-6-yl)(3,4-dichlorophenyl)(pyridin-3-yl)methanol], for which the Kd in experiment [1] was found to be 15 nM. For the same compound, in experiment [2], inhibition was half-maximal at 57 nM (IC50) and the inhibition at 6 µM was 96%.
